Measured values published in US12006278B1, “4,4′-naphthalene-1,5-diylbis(diazene-2,1-diyl)diphenol as an antioxidant compound” (KING FAISAL UNIVERSITY, priority 2023, dated 2024).

Test: DPPH radical scavenging antioxidant test
Conditions: 517 nm; for Inhibition (radical scavenging inhibition): compound 3 μM in ethanol + 0.2 mL DPPH (0.75 mM), 30 min incubation in the dark
Experimental: The antioxidant properties of the 4,4′-naphthalene-1,5-diylbis(diazene-2,1-diyl)diphenol were studied by adding 0.2 mL DPPH (0.75 mM)) to compound 4,4′-naphthalene-1,5-diylbis(diazene-2,1-diyl)diphenol (III) (3 μM) in ethanol. After 30 min of incubation in the dark, the absorbance was read against a blank at 517 nm. Ascorbic acid (vitamin C) was used as standard antioxidants (positive control). A blank sample was prepared by 0.2 ml of DPPH in 3 ml ethanol. A negative control sample was run using ethanol instead of the sample. The radical scavenging inhibition was calculated using the following equation: […]

SMILES | antioxidant potential compared to vitamin C (result in words) (DPPH in vitro test, vitamin C as positive control) | Inhibition (radical scavenging inhibition)
Oc1ccc(/N=N\c2cccc3c(/N=N/c4ccc(O)cc4)cccc23)cc1 [Product III, 4,4′-naphthalene-1,5-diylbis(diazene-2,1-diyl)diphenol] | high potential as an antioxidant | 54%
O=C1O[C@H]([C@@H](O)CO)C(O)=C1O [vit c, Ascorbic acid, reference compound] |  | 74%
